Data on 48 compounds can be found in US20250214977A1, “STAT6 INHIBITORS AND USES THEREOF” (Kymera Therapeutics, Inc., priority 2024, published 2025).

Structures are written as SMILES. “And” between values parts separate entries of the source, which are not always exact repeats. Equal values may be shown once.

The subject of the first assay is Phosphorylation of STAT6 in human A549 cells. The assay can be described thus: Phosphorylated STAT6 (pSTAT6) flow cytometry assay in human A549 cells. It counts as cell-based. Particulars: listed as I-390, read-out: STAT6 IL4 pSTAT6 assay in A549 cells: Average IC50. An excerpt: Example 3. Phosphorylated STAT6 (pSTAT6) Flow Cytometry Assay in Human A549 Cells
Phosphorylation of STAT6 in human A549 cells was quantitatively measured using flow cytometry technology.
(A flow cytometer gives signals particle by particle.)
For orientation: IC50 means the concentration that gives 50% inhibition. Turning to `COc1cc(F)cnc1N1CCN(C(=O)c2cc3c([C@@H]4CCCN4C)cc(C4=CCCN(C(=O)CCn5ccnn5)C4)c(F)c3[nH]2)CC1` (single isomer, unassigned) [Example I-813], the half-inhibitory concentration (IC50) was below 100 nM.

Still in this assay, the particulars now being: read-out: STAT6 IL4 pSTAT6 assay in A549 cells: Average IC50.
As to `CCS(=O)(=O)N1CCN(C(=O)c2cc3c(-c4ccccc4OC)cc(C4=CCCN(C(=O)CCn5ccnn5)C4)c(F)c3[nH]2)CC1` [Example I-980], the IC50 was below 100 nM.
The same measure, in the same setting: the value for `COc1cc(F)cnc1N1CCN(C(=O)c2cc3c(-c4cccc(C(C)(C)C#N)c4)cc(C4=CCCN(C(=O)CCn5ccnn5)C4)c(F)c3[nH]2)CC1` [Example I-682] was below 100 nM; that for `COc1cc(F)cnc1N1CCN(C(=O)c2cc3c([C@@H]4CCCN4C)cc(C4=CCCN(C(=O)CCn5ccnn5)C4)c(F)c3[nH]2)CC1` (single isomer, unassigned) [Example I-813] was above 100000 nM.
For the compound `COc1ccccc1-c1cc(C2=CCCN(C(=O)CCn3ccnn3)C2)c(F)c2[nH]c(C(=O)N3CCc4cccnc43)cc12` [Example I-848], the IC50 was below 100 nM.
Same read-out and setting: the value for `CCc1nc(C)ccc1-c1cc(C(=O)N2CCN(c3ncc(F)cc3OC)CC2)cc2cc(C3=CCCN(C(=O)CCn4ccnn4)C3)n(CC3CC3)c12` [Example I-517] was below 100 nM; that for `COc1cccnc1N1CCN(C(=O)c2cc3c(-n4ccccc4=O)cc(C4=CCCN(C(=O)CCn5ccnn5)C4)c(F)c3[nH]2)CC1` [Example I-807, 1-(6-(1-(3-(1H-1,2,3-triazol-1-yl)propanoyl)-1,2,5,6-tetrahydropyridin-3-yl)-7-fluoro-2-(4-(3-methoxypyridin-2-yl)piperazine-1-carbonyl)-1H-indol-4-yl)pyridin-2(1H)-one] was below 100 nM.
Still for that read-out and setting: the value for `COc1cc(F)cnc1N1CCN(C(=O)c2cc3c(-c4ccncc4C(C)C)cc(C4=CCCN(C(=O)CCn5ccnn5)C4)c(F)c3[nH]2)CC1` [Example I-703] was 10000 to 100000 nM; that for `CCC1CN(C(=O)c2cc3c(-c4ccccc4OC)cc(C4=CCCN(C(=O)CCn5ccnn5)C4)c(F)c3[nH]2)CC=C1c1ccccn1` (racemic) [Example I-1042] was 10000 to 100000 nM.
On the same count and under the same terms, next, `COc1ccccc1-c1cc(C2=CCCN(C(C)=O)C2)c(F)c2[nH]c(C(=O)N(C)C)cc12` [Example I-1069]: below 100 nM; `CN(C(=O)c1cc2c(-c3cncnc3C3CC3)cc(C3=CCCN(C(=O)CCn4ccnn4)C3)c(F)c2[nH]1)C1CC1` [Example I-1043]: above 100000 nM.
As to `CN(C)C(=O)c1cc2cc(C3=CCCN(C(=O)C(Cn4ccnn4)c4cccc(CO)c4)C3)ccc2o1` (stereo not shown) [Example I-832], the IC50 was in the range of 1000 to 10000 nM.
The same measure, in the same setting: the value for `CCc1ccccc1N1CCN(C(=O)c2cc3c(-c4ccccc4OC)cc(C4=CCCN(C(=O)CCn5ccnn5)C4)c(F)c3[nH]2)CC1` [Example I-969] was 100 to 1000 nM.
Same read-out and setting: the value for `COc1ccncc1-c1cc(C2=CCCN(C(=O)CCn3ccnn3)C2)c(F)c2[nH]c(C(=O)N3CCN(c4ccc(F)cc4OC)CC3)cc12` [Example I-482] was below 100 nM; that for `COc1cc(F)cnc1N1CCN(C(=O)c2cc3c(C4=CCOC4)cc(C4=CCCN(C(=O)CCn5ccnn5)C4)c(F)c3[nH]2)CC1` [Example I-639] was below 100 nM.
The same measure, in the same setting: next, `CCc1nc(C)ccc1-c1cc(C(=O)N2Cc3cnn(CC)c3C2)c(F)c2cc(C3=CCCN(C(=O)CCn4ccnn4)C3)n(CC3CC3)c12` [Example I-549]: above 100000 nM; `CCn1ncc2c1CN(C(=O)c1cc3c(-c4ccncc4OC)cc(C4=CCCN(C(C)=O)C4)c(F)c3[nH]1)C2` [Example I-715]: 10000 to 100000 nM.
In the case of `COc1ccccc1-c1cc(C2=CCCN(C(=O)CCn3cccn3)C2)c(F)c2[nH]c(C(=O)N3CCN(c4ncc(F)cc4OC)CC3)cc12` [Example I-687], the IC50 was below 100 nM.
Still for that read-out and setting: the value for `COc1ccccc1-c1cc(C2=CCCN(C(=O)CCn3ccnn3)C2)c(F)c2[nH]c(C(=O)N3CCN(c4ccc5c(c4)Nc4ccccc4CC5)CC3)cc12` [Example I-947] was 1000 to 10000 nM; that for `CCc1nc(C)ccc1-c1cc(C(=O)N2CCN(C3CC3)CC2)cc2c(F)c(C3=CCCN(C(=O)CCn4ccnn4)C3)n(CC3CC3)c12` [Example I-548] was above 100000 nM.
Consider `COc1ccccc1-c1cc(C2=CCCN(C(=O)CCn3ccnn3)C2)c(F)c2[nH]c(C(=O)N3CCN(c4ccncc4OC)CC3)cc12` [Example I-365], for which the IC50 is below 100 nM.
In the case of `COc1ccccc1-c1cc(C2=CCCN(C(=O)CCn3ccnn3)C2)c(F)c2[nH]c(C(=O)N3CCN(c4ncc(C5CC5)cc4OC)CC3)cc12` [Example I-354], the IC50 is below 100 nM.
The same measure, in the same setting: the value for `COc1cccc(N2CCN(C(=O)c3cc4c(-c5cc(F)cc(F)c5OC)cc(C5=CCCN(C(=O)CCn6ccnn6)C5)c(F)c4[nH]3)CC2)n1` [Example I-591] was below 100 nM.
Regarding `CCc1ccncc1-c1cc(C2=CCCN(C(=O)CCn3ccnn3)C2)c(F)c2[nH]c(C(=O)N3CCN(c4ncccc4OC)CC3)cc12` [Example I-561], the IC50 was below 100 nM.
For `COc1ccccc1/C=C/c1cc(C2=CCCN(C(=O)CCn3ccnn3)C2)c(F)c2[nH]c(C(=O)N3CCN(c4ncc(F)cc4OC)CC3)cc12` [Example I-1130], the IC50 is 100 to 1000 nM.
Same read-out and setting: next, `COc1cc(F)cnc1N1CCN(C(=O)c2cc(-c3cccnc3C3CC3)c3[nH]c(C4CCCN(C(=O)CCn5ccnn5)C4)cc3c2)CC1` (stereo not shown) [Example I-1204]: 1000 to 10000 nM.
The same measure, in the same setting: next, `COc1cccnc1N1CCN(C(=O)c2cc3c(-n4nc(C)cc4C)cc(C4=CCCN(C(=O)CCn5ccnn5)C4)c(F)c3[nH]2)CC1` [Example I-586]: below 100 nM; `COc1ccccc1-c1cc(C2=CCCN(C(=O)CCn3ccnn3)C2)c(F)c2[nH]c(C(=O)N3CCN(c4ncc(N(C)C)cc4OC)CC3)cc12` [Example I-416]: below 100 nM; `CCOc1ccc(-c2cc(C3=CCCN(C(=O)CCn4ccnn4)C3)c(F)c3[nH]c(C(=O)N4CCN(c5ncc(F)cc5OC)CC4)cc23)c(OC)c1` [Example I-661]: below 100 nM.
On the same count and under the same terms, the value for `COc1ccncc1-c1cc(C2=CCCN(C(=O)CCn3ccnn3)C2)c(F)c2[nH]c(C(=O)N3CCN(c4ncc(C5CC5)cc4OC)CC3)cc12` [Example I-438] was below 100 nM; that for `COc1cc(F)cnc1N1CCN(C(=O)c2cc3c(-c4ccc(CN5CCOCC5)cc4)cc(C4=CCCN(C(=O)CCn5ccnn5)C4)c(F)c3[nH]2)CC1` [Example I-1122] was below 100 nM.
Take `CN(C)C(=O)c1cc2cc(C3=CCCN(C(=O)CCn4ccnn4)C3)cc(-c3ccc4c(c3)NC(=O)C4)c2o1` [Example I-869]: the IC50 was below 100 nM.
`COc1cccc(N2CCN(C(=O)c3cc4c(-c5cnc6ccccc6c5OC)cc(C5=CCCN(C(=O)CCn6ccnn6)C5)c(F)c4[nH]3)CC2)n1` [Example I-1038]: the IC50 was in the range of 100 to 1000 nM.
`COc1cc(F)cnc1N1CCN(C(=O)c2cc3c(-c4cccc5c4CC[C@H]5O)cc(C4=CCCN(C(=O)CCn5ccnn5)C4)c(F)c3[nH]2)CC1` [Example I-658]: the IC50 is below 100 nM.
Still for that read-out and setting: the value for `C#CCOC1CCN(C(=O)c2cc3c(-c4ccccc4OC)cc(C4=CCCN(C(=O)CCn5ccnn5)C4)c(F)c3[nH]2)CC1` [Example I-1001] was below 100 nM; that for `CCc1cc(C)ncc1-c1cc(C2=CCCN(C(=O)C(C)C(=O)O)C2)c(F)c2[nH]c(C(=O)N3CCN(c4ncc(F)cc4OC)CC3)cc12` (stereo not shown) [Example I-808, 3-(3-(4-(4-ethyl-6-methylpyridin-3-yl)-7-fluoro-2-(4-(5-fluoro-3-methoxypyridin-2-yl)piperazine-1-carbonyl)-1H-indol-6-yl)-5,6-dihydropyridin-1(2H)-yl)-2-methyl-3-oxopropanoic acid] was 100 to 1000 nM and < 100 nM; that for `COc1ccncc1-c1cc(C2=CCCN(C(=O)CCn3ccnn3)C2)c(F)c2[nH]c(C(=O)N3CCN(c4ccc(C(F)(F)F)cc4OC)CC3)cc12` [Example I-463] was below 100 nM.
The same measure, in the same setting: the value for `COc1ccccc1-c1cc(C2=CCCN(C(=O)CCn3ccnn3)C2)c(F)c2[nH]c(C(=O)N3CCN(c4ncccc4OC)CC3)cc12` [Example I-326] was 10000 to 100000 nM.
On the same count and under the same terms, the value for `COc1ccccc1-c1cc(C2=CCCN(C(=O)CCn3ccnn3)C2)c(F)c2[nH]c(C(=O)N3CCN(c4ncccn4)CC3)cc12` [Example I-863] was below 100 nM.
In the case of `COc1ccnc(N2CCN(C(=O)c3cc4c(-c5ccccc5OC)cc(C5=CCCN(C(=O)CCn6ccnn6)C5)c(F)c4[nH]3)CC2)c1` [Example I-900], the IC50 is below 100 nM.
Consider `COc1ccccc1-c1cc(C2=CCCN(C(=O)CCn3ccnn3)C2)c(F)c2[nH]c(C(=O)N3CCN(c4c(C)ccc5c4cnn5C)CC3)cc12` [Example I-928], for which the concentration for half-maximal inhibition (IC50) was below 100 nM.
Still for that read-out and setting: the value for `COc1ccncc1-c1cc(C2=CCCN(C(=O)CCn3ccnn3)C2)c(F)c2[nH]c(C(=O)N3CCN(c4nc(Cl)ccc4OC)CC3)cc12` [Example I-491] was above 100000 nM.
The same measure, in the same setting: the value for `COc1ccccc1-c1cc(C(=O)N2CCN(c3ncc(F)cc3OC)CC2)cc2cc(C3=CCCN(C(=O)CCn4ccnn4)C3)n(CC(C)C)c12` [Example I-521] was below 100 nM; that for `CCc1cnccc1-c1cc(C2=CCCN(C(=O)CCn3cccn3)C2)c(F)c2[nH]c(C(=O)N3CCN(c4ncc(F)cc4OC)CC3)cc12` [Example I-688] was below 100 nM; that for `COc1cc(F)cnc1N1CCN(C(=O)c2cc3c(-c4ccc(N5C[C@@H](C)O[C@@H](C)C5)nc4)cc(C4=CCCN(C(=O)CCn5ccnn5)C4)c(F)c3[nH]2)CC1` [Example I-1138] was below 100 nM.
Take `COc1cc(F)cnc1N1CCN(C(=O)c2cc3c(C4=CCC(F)(F)CC4)cc(C4=CCCN(C(=O)CCn5ccnn5)C4)c(F)c3[nH]2)CC1` [Example I-1158]: the IC50 was below 100 nM.
Consider `Cc1c[nH]c2ncc(-c3cc(C4=CCCN(C(=O)CCn5ccnn5)C4)cc4cc(C(=O)N(C)C)oc34)cc12` [Example I-1085], for which the IC50 was below 100 nM.
Still for that read-out and setting: the value for `COc1ccccc1-c1cc(C2=CCCN(C(=O)CCn3ccnn3)C2)c(F)c2[nH]c(C(=O)N3CCN(c4ncccc4OC(F)F)CC3)cc12` [Example I-358] was below 100 nM; that for `COc1ccccc1-c1cc(C2=CCCN(C(=O)CCn3ccnn3)C2)c(F)c2[nH]c(C(=O)N3CCN(c4ncc(C5CC5)cc4OC4CC4)CC3)cc12` [Example I-413] was 100 to 1000 nM.
